Data reported in patent publication US20060189546A1, “Compounds for treating autoimmune and demyelinating diseases” (priority 2005, published 2006).

Columns and labels:
[1] = test system: Experimental Autoimmune Encephalomyelitis (EAE); test: Chronic-progressive EAE, weekly treatment for 4 weeks (Example 2); type: in vivo, Hartley guinea pigs
Procedure: In the present experiment, female juvenile Hartley guinea pigs (225 g) were immunized with homogenized whole CNS (in saline) with an equal amount of complete Freund's Adjuvant and 10 mg added killed M. tuberculosis. The animals (>95%) show clinical signs starting on day 7 post immunization. An acute event of varying severity occurs between day 7 and day 20 followed by a continuous accumulation of clinical abnormality with hind limb paralysis, fecal impaction and incontinence. […] These clinical features indicate inflammation-induced lumbar spinal cord demyelination.
In these experiments, the immunized animals were nursed until day 40 or day 52 and then treated with 8 mg/kg and 16 mg/kg Symadex™ (intra cardiac), or 20 mg/kg and 40 mg/kg Symadex™ (i.p.) once a week for 4 weeks. Controls were given vehicle. Clinical signs were scored daily and the weights recorded. At the completion of the treatment period, the brain and spinal cord were dissected, formalin fixed and blocked for routine pathological examination of meningeal inflammation, perivascular infiltration (cuffing), parenchymal myelitis and demyelination by a blinded observer using hematoxylin-eosin and solochrome R cyanin stained sections.
Untreated, chronic EAE animals (n=5) were sacrificed on day 40, as well as non-EAE controls (n=5). Following each 10-day treatment interval, five animals from each group were sacrificed (0.25 ml sodium pentobarbital), blood samples were collected for FACS analysis (see below), and the brain and spinal cord dissected and sectioned. Three spinal sections were used, corresponding to lumbar, thoracic and cervical regions of the cord. The brain was cut into five transverse sections; the first three proximal sections were combined in one block, and the last two distal sections in another. Tissues were fixed in 10% formalin and embedded in paraffin. Five micrometer sections were stained with hematoxylin-eosin (H-E) or solochrome-R-cyanin (SCR) and evaluated by a blinded observer in each of the four categories: meningeal inflammation, perivascular infiltration, encephalitis or myelitis and demyelination (Table 2). The combined pathological score represents the total score (out of a potential 20) from all five CNS sections in each animal.
To quantify the abnormalities observed in the spinal cord, sections stained with H-E were divided into 12 representative pie-shaped areas. In each area, the number of cells within a 0.12-mm^2 field of view was counted using Sigma Scan Pro image analysis software (SPSS), and the combined mean number of cell in all 12 areas was calculated for the whole spinal cord (36 fields of view per animal). Note that as all cell nuclei were counted, the number of cells may include neurons and glial cells in addition to infiltrates.

[2] = test system: T-lymphocyte cells; test: Cell Proliferation, T-Cell + Con A ([3H]thymidine incorporation); type: cell-based, balb/c mice; details: Mus musculus
Procedure: T-lymphocyte cells isolated from thymus of balb/c mice weighing 17±1 g were used. Test compound and/or vehicle is incubated with the cells (4×10^6/ml) in the presence of 3 μg/mL Concanavalin A (Con A) in AIM-V medium pH 7.4 at 37° C. for 24 hours. [^3H]Thymidine (120 nM) was then added for an additional overnight incubation period. Thymidine incorporation was assessed by liquid scintillation counting.
(§1) Test compound-induced suppression of cell proliferation by 50 percent or more (≧50%) relative to vehicle control response indicates significant inhibitory activity.

[3] = test system: Experimental Autoimmune Encephalomyelitis (EAE); test: Chronic EAE, two doses 72 hours apart (Example 4); type: in vivo, guinea pig; details: 20 mg/kg i.p., 2 doses 72 hours apart
Procedure: In order to test the possibility that a more frequent dosing schedule would offer a more rapid resolution of disease symptoms, an experiment was performed to match the dosing cycle to the observed periodicity of response. Accordingly, the method of Experiment 2 was applied to a cohort of animals and controls, which were allowed to reach the chronic phase of disease at 30 days post immunization. Six animals with a disease score of 1 were selected and half were treated with 20 mg/kg Symadex™ administered intraperitoneally. Two dose were given 72 hours apart to 3 animals. Three animals served as vehicle controls.

[4] = test system: Collagen Antibody Induced Arthritis; test: Collagen monoclonal antibody (mABs) + LPS induced arthritis, hind paw volume; type: in vivo, BALB/c strain mice; details: for increase in hind paw volume: oral once daily for 3 days, 30 mg/kg
Procedure: Groups of 3 BALB/c strain mice, 6-7 weeks of age, were used for the induction of arthritis by monoclonal antibodies (mABs) raised against type II collagen, plus lipopolysaccharide (LPS). A combination of 4 different mABs (D8, F10, DI-2G and A2) totaling 4 mg/mouse was administered to the animal intravenously on day 0, followed by intravenous challenge with […] of LPS 72 hours later (day 3). From day 3, test substance and vehicle were each administered orally once daily for 3 consecutive days. For each animal, volumes of both hind paws were measured using a plethysmometer with water cell (12 mm diameter) on Days 0, 5, 7, 10, 14 and 17. Percent inhibition of increase in volume induced by mABs+LPS was calculated by the following formula: Inhibition (%): [1−(Tn−T0)/(Cn−C0)]×100% Where: […]
C0(Cn): volume of day 0 (day n) in vehicle control
T0(Tn): volume of day 0 (day n) in test compound-treated group
Reduction of edema in the hind paws by 30% or more is considered significant.

[5] = test system: B-lymphocyte cells; test: Cell Proliferation, B-Cell + LPS ([3H]thymidine incorporation); type: cell-based, balb/c mice; details: Mus musculus
Procedure: B-lymphocyte cells isolated from the spleen of balb/c mice weighing 17±1 g were used. Test compound and/or vehicle were incubated with the cells (1.5×10^6/ml) in the presence of 10 μg/ml lipopolysaccharide (LPS) in AIM-V medium pH 7.4 at 37° C. for 24 hours. [^3H]Thymidine (120 nM) was then added for an additional overnight incubation period. Thymidine incorporation was assessed by liquid scintillation counting.
as §1

[6] = CNS histopathology after treatment
[7] = B-cell, read-out: % Growth Inhibition

CCN(CC)CCNc1ccc2ncn3c4ccc(O)cc4c(=O)c1c23 [Symadex™, 5-[[(diethylamino)ethyl]amino]-8-hydroxyimidazo[4,5,1-de]-acridine-6-one]
time to clinical recovery from start of treatment ([1]; 40 mg/kg i.p. once a week): ≤ 2 weeks | clinical progress and pathological findings ([1]; 20 and 40 mg/kg i.p. once a week for 4 weeks): profound and substantial change in the clinical progress and pathological findings | cells in existing lesions [1, 6]: profound loss of cells | remyelination (myelin pallor) [1, 6]: myelin pallor previously attributed to remyelination | scores for meningeal inflammation and perivascular infiltration ([1]; treated groups vs vehicle controls, CNS histopathology): more severe in the treated groups than in vehicle controls | IC50 ([2]; T-Cell + Con A): 14 nM | inhibition at 0.001 µM ([2]; T-Cell + Con A, 1 nM, read-out: % Growth Inhibition): 10% | inhibition at 0.01 µM ([2]; T-Cell + Con A, 10 nM, read-out: % Growth Inhibition): 44% | inhibition at 0.1 µM ([2]; T-Cell + Con A, 0.1 μM, read-out: % Growth Inhibition): 82% | inhibition at 1 µM ([2]; read-out: % Growth Inhibition): 103% | inhibition at 10 µM ([2]; read-out: % Growth Inhibition): 104% | clinical scores [3]: reversed the progression of disease and restored baseline clinical scores with just 2 doses | increase in hind paw volume ([4]; day 5, vehicle 42%): 32% | inhibition of increase in paw volume ([4]; day 10): 61% | increase in hind paw volume ([4]; day 10, vehicle 75%): 29% | inhibition of increase in paw volume ([4]; day 14): 74% | increase in hind paw volume ([4]; day 14, vehicle 70%): 18% | inhibition of increase in paw volume ([4]; day 17): 59% | increase in hind paw volume ([4]; day 17, vehicle 47%): 19% | inhibition at 1 µM [5, 7]: 101% | inhibition at 10 µM [5, 7]: 103% | IC50 ([5]; B-Cell + LPS): 38 nM | inhibition at 0.001 µM ([5]; B-Cell + LPS, 1 nM, read-out: % Growth Inhibition): 0% | inhibition at 0.01 µM ([5]; B-Cell + LPS, 10 nM, read-out: % Growth Inhibition): 38% | inhibition at 0.1 µM ([5]; B-Cell + LPS, 0.1 μM, read-out: % Growth Inhibition): 80%
